Test results taken from patent EP1978972B1, “USE OF ALKYLGLUCOSIDE ESTERS AS BETA-DEFENSIN INDUCERS” (Pierre Fabre Dermo-Cosmétique, priority 2006, dated 2007).
Like-named read-outs stand apart in the source and are kept apart here.

What was measured:
hBD-2 [1] = assay: cells; type: cell-based, human; conditions: HaCat; for induction de la synthèse du peptide hBD-2: starting materials of the enzymatic synthesis, in words
From the text: (§1) Il est connu de WO 97/45101 que les esters d'α-alkylglucoside peuvent être utilisés comme agent anti-microbien et/ou anti-fongique pour agir en tant que conservateur dans une composition, pour la préserver d'un développement microbien. D'autre part, les propriétés moussantes des esters de méthyl glucose sont décrites dans Desai et al (« Sofw Journal Seife, Oele, Fette, Wachse, Verlag für chemische Industrie » 1991). • Modèle cellulaire : lignée cellulaire HaCat, kératynocytes d'origine humaine, primoculture de kératinocytes humains • Modèle tissulaire : • Explants de peau normale provenant de déchet opératoire de chirurgie esthétique • Explants de gencive normale provenant de déchet opératoire de chirurgie implantatoire ou d'épithélium gingival reconstruit à partir de cellules épithéliales orales primaires • ➢ Les cellules HaCat sont ensemencées et cultivées en plaque 6 puits à 200 000 cellules/puits sous un volume de 2 ml de milieu de culture DMEM 1640 : (Ref: Invitrogen) complémenté par 10 % de sérum de veau foetal (SVF, Ref : CH30160.02 Perbio-Hyclone) pendant 18 h (sur la nuit). • ➢ A T0 les cellules sont lavées avec du tampon Phosphate (PBS, Ref: 52100-039 Invitrogen) puis privées en sérum pour les rendre quiescentes pendant 24 h (ralentissement de leur croissance et élimination de toute trace de facteurs susceptibles de perturber les effets induits par les traitements ultérieurs). • ➢ A T0+24 h les cellules sont traitées par des cytokines pro-inflammatoires (TNF-α à 10 ng/ml, IL1-β à 10 ng/ml) ou des éléments bactériens (LPS à 50 ng/ml, SEB à 100 ng/ml) ou des actifs potentiels de type « alkyle mono- ou di-ester d'α,β-butylglucoside » dilués dans du DMEM (1 ml/puits); La durée du traitement est de 3 h à 37°C. • ➢ Les kératinocytes primaires sont préparés à partir de peau normale provenant de déchet opératoire de chirurgie esthétique. […]
La méthode de RT-PCR quantitative utilisée est décrite dans le matériel et méthode. […]

hBD-2 [2] = type: cell-based, human; conditions: skin explant, systemic, 3 µg/ml, 2 h and 15 h, in words
From the text: as §1, with “esthétique. Ils sont ensemencés et cultivés en plaque 24 puits à 60 000 cellules/puits sous un volume de 0,5 ml de milieu de culture KSFM (Ref : 37010 Invitrogen) complémenté par de l'EGF (Epidermal Growth Factor) à 1,5 ng/ml et du BPE (bovine pituitary extract) à 25 µg/ml pendant 24 h. • ➢ A J0, le milieu est remplacé par 0,5 ml de milieu KSFM complet, additionné de 1,2 nM de calcium. • ➢ A J+3, les cellules sont traitées par des cytokines pro-inflammatoires TNF-α et IL 1-β à 10 ng/ml ou des actifs potentiels de type « alkyle mono- ou di-ester d'α,β-butylglucoside » dilués dans 0,3 ml de milieu KSFM complet, en présence de 1,2 nM de calcium.” for “esthétique.”

S. aureus = assay: Adhesion of S. aureus on skin explant (modified Franz cell), count of adherent bacteria; type: cell-based, Staphylococcus aureus; conditions: topical 30 µg/ml
From the text: Pour révéler le complexe Antigène-Anticorps, le kit DAKO LSAB® (DAKO Corporation) est utilisé selon les recommandations du fournisseur. La révélation est réalisée à l'aide d'un substrat de la péroxydase : la 3,3'diaminobenzidine (DAB) (DAKO Corporation). La réaction enzymatique est révélée par une coloration brune. • ➢L'adhésion des micro-organismes est réalisée dans une cellule à double compartimentation, de type cellule de Franz modifiée. • ➢Une suspension de S.aureus (CIP 53.154) équivalente à 0,5.10^7 micro-organismes est introduite au sein du compartiment supérieur de la cellule. Le dispositif est incubé de 2 h à 37°C sous une atmosphère à 5 % de CO2. A la fin de cette période d'incubation, le surnageant est retiré afin d'éliminer les bactéries non adhérentes. Les échantillons de peau sont ensuite rincés deux fois avec 1 ml de mélange DMEM/HAMF12. Un dénombrement bactérien à l'issue de cette étape donne la proportion de bactéries ayant adhéré à l'explant (T+2 h). Un témoin est réalisé dans le but de déterminer l'adhésion non spécifique des bactéries. • ➢La stimulation de l'expression des β-défensines cutanées précède l'étape d'adhésion. Son objectif est d'étudier l'impact de l'induction des peptides antimicrobiens par des actifs potentiels de type « alkyle mono- ou di-ester d'α,β-butylglucoside » sur l'adhésion de souches bactériennes. Le traitement est effectué en topique ou en systémique. Le temps de stimulation des explants cutanés est de 24 h à 37°C en présence de 5 % de CO2.
Pour analyse, les explants sont retirés de leur cellule, des punchs de diamètres différents (3 mm, 4 mm et 6 mm) sont effectués pour un test MTT de survie, les marquages immuno-histologiques et les analyses des transcrits par RT-PCR. Le reste de peau est utilisé pour une estimation de la flore bactérienne adhérente.
Le dénombrement de la flore bactérienne adhérente exogène par unité de surface de peau a été effectué selon deux méthodes : • par dénombrement bactérien sur milieu solide • par comptage de la radioactivité émise (la souche contaminante étant marquée au H^3) est effectuée. […]
Après une application topique de 5 h et plusieurs rinçages de la surface épidermique d'un explant cutané, l'effet du traitement par l'α,β-LBG brut sur l'adhésion de S.aureus sur ce même explant a été quantifié par le dénombrement des germes adhérents à l'issue d'une mise en contact de 2 h. […]
Après application topique et plusieurs rinçages de la surface épidermique des explants cutanés, l'effet du traitement par les isoformes de l'ester de laurate de butylglucoside pur à 90 %, séparées, α seul, β seul, ou en mélange α,β-LBG (56 % α/44 % β) sur l'adhésion de S. aureus sur l'épiderme a été comparé après quantification des germes adhérents par dénombrement.

CCCCCCCCCCCC(=O)O [Acide Laurique]
induction de la synthèse du peptide hBD-2 (hBD-2 [1]): ne provoquent pas une induction
fold induction at 10 µg/mL (hBD-2 [1]; Homo sapiens, hBD-2 mRNA, 3 h, 10 µg/ml, vs unstimulated control, read-out: Facteur d'induction (FI)): 1.1

laurate de butylglucoside [α-LBG pur]
induction de l'expression du gène hBD-2 (hBD-2 [2]; listed as α-LBG pure): ne présente pas d'activité

laurate de butylglucoside [αβ-LBG pur]
induction de l'expression du gène hBD-2 (hBD-2 [2]): potentiel inducteur significatif surtout après une durée de traitement longue
baisse moyenne de l'adhésion de S. aureus (S. aureus; LBG pur à 90 %, vs untreated control): ~19%

laurate de butylglucoside [β-LBG pur]
limitation de l'adhésion de S. aureus (S. aureus; comparison of isoforms, in words): en moyenne plus actif sur la limitation de l'adhésion de S. aureus que l'isoforme α-LBG

αβ-butylglucoside
induction de la synthèse du peptide hBD-2 (hBD-2 [1]): ne provoquent pas une induction
